Series [1] concerns MDA MB-231 human breast cancer cells. As to the kind of experiment: Cell cycle analysis by flow cytometry (Vindelov method). The class given is cell-based. The following applies: for Effect on cell cycle (G0/G1 arrest), in words: procyanidin-treated MDA MB-231 cells, see Table 1; for Increase in G0/G1 arrest, synthetic compared to natural procyanidin: see Table 2. The procedure:
The MDA MB-231 cell line was P53 defective, ER negative, and constitutively expressed K-ras. Cells were cultured in T-75s in IMEM medium (BioFluids Inc.) supplemented with 10% FBS (Gibco BRL Life Technologies) in a humidified 5% CO2 atmosphere at 37° C. […] See Vindelov, L. et al., “A Detergent Trypsin Method for the Preparation of Nuclei for Flow Cytometric DNA Analysis”, Cytometry, 1983, 3, 323–327. Analyses were performed by the Lombardi Cancer Center Flow Cytometry Core Facility at Georgetown University Medical Center.
For orientation: Flow cytometry measures light scatter and fluorescence of single cells or particles in a stream.

In series [2] the test system is human breast cancer cell lines. Nature of the series: Cytotoxicity assay (microculture tetrazolium assay modified for crystal violet). Type of series: cell-based. The procedure: The human breast cancer cell lines MCF-7, SKBR-3, MDA 435, and MDA MB-231 were obtained from the Lombardi Cancer Center Cell Culture Core Facility at Georgetown University Medical Center. The MDA MB-231 cell line was P53 defective, ER negative, and constitutively expressed K-ras. Cells were cultured in T-75s in IMEM medium (BioFluids Inc.) supplemented with 10% FBS (Gibco BRL Life Technologies) in a humidified 5% CO2 atmosphere at 37° C.
Cytotoxicity assays were performed on several human breast cancer cell lines treated with test compounds in a 96 well microtiter plate format using the microculture tetrazolium assay^28 modified for use with crystal violet rather than MTT. Briefly, 1–2×10^3 cells were added per well and allowed to culture in a humidified, 5% CO2 atmosphere until they reached approximately 50% confluence. Sterile filtered test compounds were added at various concentrations, and the plates were allowed to culture for an additional 12–36 hours. The growth medium was then removed, and each well was washed twice with 200 μL each of pH 7.4 PBS. […] At the end of 1 hour, the plates were scanned at 570 nm (ref. 405 nm) with a Molecular Devices Corporation microtiter plate reader, and the data was recorded with the SOFTMAX software program. The average of 3 readings was taken for each blank, control, vehicle, and test concentration for statistical data manipulation.

Where [3] appears, read: Table 1, procyanidins purified from cocoa, 200 μg/mL, 24 hrs.
The mark [4] stands for this setting: Table 2, natural versus synthetic, 200 μg/mL, 24 hr.
The mark [5] stands for this setting: Table 3, 100 μM H2O2 + catalase, 24 hr.
Setting [6] is: Table 3, 100 μM H2O2 + heat inactivated catalase, 24 hr.
The mark [7] stands for this setting: Table 3, 200 μg/mL + 100 μM H2O2 + catalase, 24 hr.
[8] abbreviates: Table 3, 200 μg/mL + 100 μM H2O2 + heat inactivated catalase, 24 hr.
Where [9] appears, read: Table 3, 200 μg/mL + 100 μM H2O2, 24 hr.
[10] abbreviates: Table 3, 200 μg/mL + catalase, 24 hr.
Setting [11] is: Table 3, 200 μg/mL + heat inactivated catalase, 24 hr.

Structures are written as SMILES.

As for `Oc1cc(O)c2c(c1)O[C@H](c1ccc(O)c(O)c1)[C@H](O)[C@H]2c1c(O)cc(O)c2c1O[C@H](c1ccc(O)c(O)c1)[C@H](O)[C@H]2c1c(O)cc(O)c2c1O[C@H](c1ccc(O)c(O)c1)[C@H](O)C2` [Natural trimer, epicatechin (4β,8)2-trimer], in series [1] (setting [3]), the “% G0/G1” value is 43.22%, the “% G2/M” value amounted to 20.80% and the “% S” value was found to be 35.98%. Further, in series [1] (setting [4]), the “% G0/G1” value came out at 28.46%, the “% G2/M” value was determined as 23.05% and the “% S” value came out at 48.49%. Moreover, in series [1], the “Effect on cell cycle (G0/G1 arrest), in words” value (shortened to “Effect on cell cycle”) is listed as “no effect”.

Consider `Oc1cc(O)c2c(c1)O[C@H](c1ccc(O)c(O)c1)[C@H](O)[C@H]2c1c(O)cc(O)c2c1O[C@H](c1ccc(O)c(O)c1)[C@H](O)[C@H]2c1c(O)cc(O)c2c1O[C@H](c1ccc(O)c(O)c1)[C@H](O)C2` [Synthetic trimer, epicatechin (4β,8)2-trimer], for which the “Increase in G0/G1 arrest, synthetic compared to natural procyanidin” value (“Increase in G0/G1 arrest, synthetic” below) in series [1] (200 μg/mL, 24 hr) is “No difference in activity”. In series [1] (setting [4]), the “% G0/G1” value is 26.98%, the “% G2/M” value turned out to be 23.45% and the “% S” value is 49.57%.

`Oc1cc(O)c2c(c1)O[C@H](c1ccc(O)c(O)c1)[C@H](O)[C@H]2c1c(O)cc(O)c2c1O[C@H](c1ccc(O)c(O)c1)[C@H](O)[C@H]2c1c(O)cc(O)c2c1O[C@H](c1ccc(O)c(O)c1)[C@H](O)[C@H]2c1c(O)cc(O)c2c1O[C@H](c1ccc(O)c(O)c1)[C@H](O)[C@H]2c1c(O)cc(O)c2c1O[C@H](c1ccc(O)c(O)c1)[C@H](O)C2` [Synthetic pentamer, epicatechin (4β,8)4-pentamer]: in series [2] (several breast cancer cell lines), the Cell growth inhibition result is on record as “inhibited cell growth”. Moreover, the “Increase in G0/G1 arrest, synthetic” value in series [1] (200 μg/mL, 24 hr) is recorded as “approximately 30%”. In addition, in series [1] (setting [4]), the “% G0/G1” value was found to be 64.15%, the “% G2/M” value is 12.49% and the “% S” value stood at 23.36%.

Take `Oc1cc(O)c2c(c1)O[C@H](c1ccc(O)c(O)c1)[C@H](O)[C@H]2c1c(O)cc(O)c2c1O[C@H](c1ccc(O)c(O)c1)[C@H](O)[C@H]2c1c(O)cc(O)c2c1O[C@H](c1ccc(O)c(O)c1)[C@H](O)[C@H]2c1c(O)cc(O)c2c1O[C@H](c1ccc(O)c(O)c1)[C@H](O)C2` [Natural tetramer, epicatechin (4β,8)3-tetramer]: in series [1] (setting [3]), the “% G0/G1” value is 51.46%, the “% G2/M” value is given as 20.30% and the “% S” value was determined as 28.25%. Further, in series [1] (setting [4]), the “% G0/G1” value turned out to be 36.82%, the “% G2/M” value is 19.02% and the “% S” value is listed as 43.37%. The “Effect on cell cycle” value in series [1] is given as “only a slight effect”.

As to `Oc1cc(O)c2c(c1)O[C@H](c1ccc(O)c(O)c1)[C@H](O)[C@H]2c1c(O)cc(O)c2c1O[C@H](c1ccc(O)c(O)c1)[C@H](O)[C@H]2c1c(O)cc(O)c2c1O[C@H](c1ccc(O)c(O)c1)[C@H](O)[C@H]2c1c(O)cc(O)c2c1O[C@H](c1ccc(O)c(O)c1)[C@H](O)C2` [Synthetic tetramer, epicatechin (4β,8)3-tetramer], the “Increase in G0/G1 arrest, synthetic” value in series [1] (200 μg/mL, 24 hr) is reported as “approximately 15%”. Moreover, in series [1] (setting [4]), the “% G0/G1” value is given as 43.49%, the “% G2/M” value is 17.03% and the “% S” value amounted to 39.39%.

With `OO` [H2O2, hydrogen peroxide, reference compound], in series [1] (setting [5]), the “% G0/G1” value came out at 35.20%, the “% G2/M” value amounted to 21.86% and the “% S” value is listed as 42.93%. Further, in series [1] (setting [6]), the “% G0/G1” value amounted to 20.27%, the “% G2/M” value was 34.25% and the “% S” value was 45.48%. Also, in series [1] (Table 3, 100 μM H2O2, 24 hr), the “% G0/G1” value was 20.32%, the “% G2/M” value turned out to be 34.76% and the “% S” value was found to be 44.92%. The “Effect of hydrogen peroxide on cell cycle, in words” value in series [1] (hydrogen peroxide at levels reported in the literature, see Table 3) is given as “shift in the cell cycle to G2/M with a decrease in G0/G1”.

For `Oc1cc(O)c2c(c1)O[C@H](c1ccc(O)c(O)c1)[C@H](O)[C@H]2c1c(O)cc(O)c2c1O[C@H](c1ccc(O)c(O)c1)[C@H](O)[C@H]2c1c(O)cc(O)c2c1O[C@H](c1ccc(O)c(O)c1)[C@H](O)[C@H]2c1c(O)cc(O)c2c1O[C@H](c1ccc(O)c(O)c1)[C@H](O)[C@H]2c1c(O)cc(O)c2c1O[C@H](c1ccc(O)c(O)c1)[C@H](O)C2` [Pentamers, epicatechin (4β,8)4-pentamer], the “Cytotoxicity to human breast cancer cell lines” value in series [2] (purified from cocoa polyphenol extracts or prepared synthetically) is “cytotoxicity to human breast cancer cell lines”. For the same compound, the “% G0/G1” value in series [1] (setting [7]) is 48.20%; in series [1] (setting [8]), 39.47%; in series [1] (setting [9]), 42.67%; in series [1] (setting [10]), 41.23%; in series [1] (setting [11]) it was 42.89%; in series [1] (Table 3, 200 μg/mL, 24 hr), 44.94%. The “% G2/M” value was determined as 20.68% in series [1] (setting [7]); 37.14% in series [1] (setting [8]); 38.71% in series [1] (setting [9]); 20.12% in series [1] (setting [10]); 17.68% in series [1] (setting [11]); 17.05% in series [1] (Table 3, 200 μg/mL, 24 hr). For the same compound, the “% S” value is given as 31.12% in series [1] (setting [7]); 23.39% in series [1] (setting [8]); 18.63% in series [1] (setting [9]); 39.65% in series [1] (setting [10]); 39.43% in series [1] (setting [11]); 38.01% in series [1] (Table 3, 200 μg/mL, 24 hr). Besides, in series [1], the “Effect on cell cycle” value was “caused a G0/G1 arrest”.

`Oc1cc(O)c2c(c1)O[C@H](c1ccc(O)c(O)c1)[C@H](O)[C@H]2c1c(O)cc(O)c2c1O[C@H](c1ccc(O)c(O)c1)[C@H](O)[C@H]2c1c(O)cc(O)c2c1O[C@H](c1ccc(O)c(O)c1)[C@H](O)[C@H]2c1c(O)cc(O)c2c1O[C@H](c1ccc(O)c(O)c1)[C@H](O)[C@H]2c1c(O)cc(O)c2c1O[C@H](c1ccc(O)c(O)c1)[C@H](O)C2` [Natural pentamer, epicatechin (4β,8)4-pentamer]: in series [1] (setting [4]), the “% G0/G1” value was found to be 45.99%, the “% G2/M” value is recorded as 15.76% and the “% S” value was 38.25%.

Values taken from patent US7244855B2, “Synthesis of oligomeric epicatechin and catechin-derived procyanidins” (Mars, Inc., priority 2002, dated 2007).
